# Laboratory results as given in patent US5140009A (Tap Pharmaceuticals, Inc., priority 1990, dated 1992).
# Numbered stars: 1 amine (or outer) side, 2 acyl side, 3 side chain; on linkers, the order of the positions; unused ones are H or OH. Square brackets hold non-standard residues; d marks the D form. Peptide text beside a SMILES is read from it. * marks the point of attachment. Phe(4-Cl) = N[C@@H](Cc1ccc(Cl)cc1)C(=O)O; 1Nal = N[C@@H](Cc1cccc2ccccc12)C(=O)O; d2Nal = N[C@H](Cc1ccc2ccccc2c1)C(=O)O; NMeY = CN[C@@H](Cc1ccc(O)cc1)C(=O)O; NMeS = CN[C@@H](CO)C(=O)O; Morpholide = C1CN(*)CCO1; CO = O=C([*:1])[*:2]
# Target: T1, LHRH receptors (Rattus norvegicus, UniProt P30969)
# T1 construct: Pituitary membranes containing LHRH receptors are prepared in batches from quick-frozen rat pituitaries; tissue Hilltop Labs; host or cells: rat pituitary membranes
# T1 sequence (P30969 1-327): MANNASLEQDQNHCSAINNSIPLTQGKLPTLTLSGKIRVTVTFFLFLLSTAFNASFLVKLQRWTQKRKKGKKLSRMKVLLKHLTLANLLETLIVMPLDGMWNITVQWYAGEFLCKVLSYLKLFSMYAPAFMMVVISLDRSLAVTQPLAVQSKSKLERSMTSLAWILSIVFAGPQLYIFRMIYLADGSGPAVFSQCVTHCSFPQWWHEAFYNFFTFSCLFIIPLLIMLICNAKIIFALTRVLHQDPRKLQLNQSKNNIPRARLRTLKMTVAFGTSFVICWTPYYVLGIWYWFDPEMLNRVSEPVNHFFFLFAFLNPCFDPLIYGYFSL
# Experiment: Receptor Binding (radioligand receptor binding assay)
# Conditions: table 3; rat pituitary membranes, radioiodinated [D-Leu^6 -des Gly^10 ]-LHRH ethyl amide 50 pM, 2 hours at 4° C.; read-out: Receptor Binding pkI (converted)
row,Compound,Ki [nM]
1,"CCNC(=O)[C@@H]1CCCN1C(=O)[C@H](CCCNC(=N)N)NC(=O)[C@H](CC(C)C)NC(=O)[C@@H](Cc1c[nH]c2ccccc12)NC(=O)[C@H](Cc1ccc(O)cc1)NC(=O)[C@H](CO)NC(=O)[C@H](Cc1c[nH]c2ccccc12)NC(=O)[C@H](Cc1c[nH]cn1)NC(=O)N1CCOCC1 [Compound 109, (2-9)[N-(N-alpha-Morpholinocarbonyl)-His^2 -D-Trp^6 -Pro^9 NHEt]LHRH] ({Morpholide-CO}-HWSY[dW]LRP-NHEt)",0.316
2,"CCNC(=O)[C@@H]1CCCN1C(=O)[C@H](CCCNC(=N)N)NC(=O)[C@H](CC(C)C)NC(=O)[C@@H](Cc1c[nH]c2ccccc12)NC(=O)[C@H](Cc1ccc(O)cc1)NC(=O)[C@H](CO)NC(=O)[C@H](Cc1c[nH]c2ccccc12)NC(=O)[C@H](Cc1cccc2ccccc12)NC(=O)N1CCOCC1 [Compound 110, (2-9)[N-(N-alpha-Morpholinocarbonyl)-1-Nal^2 -D-Trp^6 -Pro^9 NHEt]LHRH] ({Morpholide-CO}-[1Nal]WSY[dW]LRP-NHEt)",0.1
3,"CCNC(=O)[C@@H]1CCCN1C(=O)[C@H](CCCNC(=N)N)NC(=O)[C@H](CC(C)C)NC(=O)[C@@H](Cc1c[nH]c2ccccc12)NC(=O)[C@H](Cc1ccc(O)cc1)NC(=O)[C@H](CO)NC(=O)[C@H](Cc1c[nH]c2ccccc12)NC(=O)[C@@H](Cc1ccc2ccccc2c1)NC(=O)N1CCOCC1 [Compound 111, (2-9)[N-(N-alpha-Morpholinocarbonyl)-D-2-Nal^2 -D-Trp^6 -Pro^9 NHEt]LHRH] ({Morpholide-CO}-[d2Nal]WSY[dW]LRP-NHEt)",2.75
4,"CCNC(=O)[C@@H]1CCCN1C(=O)[C@H](CCCNC(=N)N)NC(=O)[C@H](CC(C)C)NC(=O)[C@@H](Cc1c[nH]c2ccccc12)NC(=O)[C@H](Cc1ccc(O)cc1)NC(=O)[C@H](CO)NC(=O)[C@H](Cc1c[nH]c2ccccc12)NC(=O)[C@H](Cc1ccc(Cl)cc1)NC(=O)N1CCOCC1 [Compound 112, (2-9)[N-(N-alpha-Morpholinocarbonyl)-4-Cl -Phe^2 -D-Trp^6 -Pro^9 NHEt]LHRH] ({Morpholide-CO}-[Phe(4-Cl)]WSY[dW]LRP-NHEt)",0.316
5,"CCNC(=O)[C@@H]1CCCN1C(=O)[C@H](CCCNC(=N)N)NC(=O)[C@H](CC(C)C)NC(=O)[C@@H](Cc1c[nH]c2ccccc12)NC(=O)[C@H](Cc1ccc(O)cc1)N(C)C(=O)[C@H](CO)NC(=O)[C@H](Cc1c[nH]c2ccccc12)NC(=O)[C@H](Cc1ccccc1)NC(=O)N1CCOCC1 [Compound 114, (2-9)[N-(N-alpha-Morpholinocarbonyl)-Phe^2 -N-Me-Tyr^5 -D-Trp^6-Pro^9 -NHEt]LHRH] ({Morpholide-CO}-FWS[NMeY][dW]LRP-NHEt)",0.00575
6,"CCNC(=O)[C@@H]1CCCN1C(=O)[C@H](CCCNC(=N)N)NC(=O)[C@H](CC(C)C)NC(=O)[C@@H](Cc1c[nH]c2ccccc12)NC(=O)[C@H](Cc1ccc(O)cc1)NC(=O)[C@H](CO)N(C)C(=O)[C@H](Cc1c[nH]c2ccccc12)NC(=O)[C@H](Cc1ccccc1)NC(=O)N1CCOCC1 [Compound 115, (2-9)[N-(N-alpha-Morpholinocarbonyl)-Phe^2 -N-Me-Ser^4 -D-Trp^6-Pro^9 -NHEt]LHRH] ({Morpholide-CO}-FW[NMeS]Y[dW]LRP-NHEt)",2.24
7,"CCNC(=O)[C@@H]1CCCN1C(=O)[C@H](CCCNC(=N)N)NC(=O)[C@H](CC(C)C)NC(=O)[C@@H](Cc1c[nH]c2ccccc12)NC(=O)[C@H](Cc1ccc(O)cc1)NC(=O)[C@H](CO)NC(=O)[C@H](Cc1ccc(O)cc1)N(C)C(=O)[C@H](Cc1ccccc1)NC(=O)N1CCOCC1 [Compound 116, (2-9)[N-(N-alpha-Morpholinocarbonyl)-Phe^2 -N-Me-Tyr^3 -D-Trp^6-Pro^9 NHEt]LHRH] ({Morpholide-CO}-F[NMeY]SY[dW]LRP-NHEt)",5.01
